Drawing on US10106556B2, “Heterocyclic compound” (TAKEDA PHARMACEUTICAL COMPANY LIMITED, priority 2015, dated 2018), this text covers inhibition for 27 compounds.

What is called inhibition is the relative decrease from the control value, in per cent.

In this assay the target is T1, His-hMAGL (recombinant polyhistidine tagged human MAGL protein) (Homo sapiens, UniProt Q99685).
T1 construct: made in house; host or cells: E. coli BL21(DE3)
T1 sequence (Q99685 1-303): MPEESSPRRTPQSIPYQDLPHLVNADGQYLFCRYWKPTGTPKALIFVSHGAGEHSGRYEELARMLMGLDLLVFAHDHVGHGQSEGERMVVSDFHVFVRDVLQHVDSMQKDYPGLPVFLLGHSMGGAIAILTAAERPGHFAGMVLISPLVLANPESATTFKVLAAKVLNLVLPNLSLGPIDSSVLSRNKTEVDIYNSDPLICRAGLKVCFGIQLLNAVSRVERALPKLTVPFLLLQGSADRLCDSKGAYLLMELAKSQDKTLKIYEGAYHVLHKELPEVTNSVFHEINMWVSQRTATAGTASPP
Briefly: Measurement of MAGL inhibitory activity (arachidonic acid production from 2-arachidonylglycerol, RapidFire-mass spectrometry). The note with it: MAGL inhibitory rate at 10 μM test compound; 60 min preincubation with His-hMAGL, 2-arachidonylglycerol substrate, 10 min reaction at room temperature. Format: biochemical. The essentials: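 Inhibition (%) was derived from arachidonic acid levels relative to enzyme-free and compound-free groups. Product was measured by online C4 solid-phase extraction and triple-quadrupole MS in negative SRM mode, corrected by arachidonic acid-d8 (3 μM in the acetonitrile added). Substrate was 2-arachidonylglycerol; enzyme was His-tagged recombinant human MAGL.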
In the case of `O=C1COc2cc(F)c(C(=O)N3CC(COc4ccc(-c5cccnc5Cl)cc4F)C3)cc2N1` [Example 232, 6-((3-((4-(2-chloropyridin-3-yl)-2-fluorophenoxy)methyl)azetidin-1-yl)carbonyl)-7-fluoro-2H-1,4-benzoxazin-3(4H)-one], the inhibition at 10 µM is 99%.
In the case of `CCc1ncccc1-c1ccc(OCC2CN(C(=O)c3cc4c(cc3F)OCC(=O)N4)C2)c(F)c1` [Example 233, 6-((3-((4-(2-ethylpyridin-3-yl)-2-fluorophenoxy)methyl)azetidin-1-yl)carbonyl)-7-fluoro-2H-1,4-benzoxazin-3(4H)-one], the inhibition at 10 µM was 100%.
To `O=C1COc2cc(F)c(C(=O)N3CC(COc4ccc(-c5cncc(F)c5)cc4F)C3)cc2N1` [Example 234, 7-fluoro-6-((3-((2-fluoro-4-(5-fluoropyridin-3-yl)phenoxy)methyl)azetidin-1-yl)carbonyl)-2H-1,4-benzoxazin-3(4H)-one] belongs 97%.
The result for `O=C1COc2cc(F)c(C(=O)N3CC(COc4ccc(-c5cncc(Cl)c5)cc4F)C3)cc2N1` [Example 235, 6-((3-((4-(5-chloropyridin-3-yl)-2-fluorophenoxy)methyl)azetidin-1-yl)carbonyl)-7-fluoro-2H-1,4-benzoxazin-3(4H)-one] reads 100%; that for `Cc1cncc(-c2ccc(OCC3CN(C(=O)c4cc5c(cc4F)OCC(=O)N5)C3)c(F)c2)c1` [Example 236, 7-fluoro-6-((3-((2-fluoro-4-(5-methylpyridin-3-yl)phenoxy)methyl)azetidin-1-yl)carbonyl)-2H-1,4-benzoxazin-3(4H)-one], 99%; that for `Cc1ccncc1-c1ccc(OCC2CN(C(=O)c3cc4c(cc3F)OCC(=O)N4)C2)c(F)c1` [Example 237, 7-fluoro-6-((3-((2-fluoro-4-(4-methylpyridin-3-yl)phenoxy)methyl)azetidin-1-yl)carbonyl)-2H-1,4-benzoxazin-3(4H)-one], 99%.
With `O=C1COc2cc(F)c(C(=O)N3CC(COc4ccc(-c5ccc(F)nc5)cc4F)C3)cc2N1` [Example 238, 7-fluoro-6-((3-((2-fluoro-4-(6-fluoropyridin-3-yl)phenoxy)methyl)azetidin-1-yl)carbonyl)-2H-1,4-benzoxazin-3(4H)-one], the inhibition at 10 µM came out at 99%.
For `O=C1COc2cc(F)c(C(=O)N3CC(COc4ccc(-c5ccncc5)cc4F)C3)cc2N1` [Example 239, 7-fluoro-6-((3-((2-fluoro-4-(pyridin-4-yl)phenoxy)methyl)azetidin-1-yl)carbonyl)-2H-1,4-benzoxazin-3(4H)-one], the inhibition at 10 µM is 100%.
The result for `O=C1COc2cc(F)c(C(=O)N3CC(COc4ccc(-c5ccnc(F)c5)cc4F)C3)cc2N1` [Example 240, 7-fluoro-6-((3-((2-fluoro-4-(2-fluoropyridin-4-yl)phenoxy)methyl)azetidin-1-yl)carbonyl)-2H-1,4-benzoxazin-3(4H)-one] reads 102%; that for `O=C1COc2cc(F)c(C(=O)N3CC(COc4ccc(-c5ccnc(Cl)c5)cc4F)C3)cc2N1` [Example 241, 6-((3-((4-(2-chloropyridin-4-yl)-2-fluorophenoxy)methyl)azetidin-1-yl)carbonyl)-7-fluoro-2H-1,4-benzoxazin-3(4H)-one], 101%; that for `O=C1COc2cc(F)c(C(=O)N3CC(COc4ccc(-c5ccncc5F)cc4F)C3)cc2N1` [Example 242, 7-fluoro-6-((3-((2-fluoro-4-(3-fluoropyridin-4-yl)phenoxy)methyl)azetidin-1-yl)carbonyl)-2H-1,4-benzoxazin-3(4H)-one], 100%.
The result for `O=C1COc2cc(F)c(C(=O)N3CC(COc4ccc(-c5ccncc5Cl)cc4F)C3)cc2N1` [Example 243, 6-((3-((4-(3-chloropyridin-4-yl)-2-fluorophenoxy)methyl)azetidin-1-yl)carbonyl)-7-fluoro-2H-1,4-benzoxazin-3(4H)-one] reads 101%; that for `O=C1COc2cc(F)c(C(=O)N3CC(COc4ccc(C5=CCOCC5)cc4F)C3)cc2N1` [Example 244, 6-((3-((4-(3,6-dihydro-2H-pyran-4-yl)-2-fluorophenoxy)methyl)azetidin-1-yl)carbonyl)-7-fluoro-2H-1,4-benzoxazin-3(4H)-one], 100%; that for `CN1CC=C(c2ccc(OCC3CN(C(=O)c4cc5c(cc4F)OCC(=O)N5)C3)c(F)c2)CC1` [Example 245, 7-fluoro-6-((3-((2-fluoro-4-(1-methyl-1,2,3,6-tetrahydropyridin-4-yl)phenoxy)methyl)azetidin-1-yl)carbonyl)-2H-1,4-benzoxazin-3(4H)-one], 96%.
For the compound `Cn1cc(-c2ccc(OCC3CN(C(=O)c4cc5c(cc4F)OCC(=O)N5)C3)c(F)c2)cn1` [Example 246, 7-fluoro-6-((3-((2-fluoro-4-(1-methyl-1H-pyrazol-4-yl)phenoxy)methyl)azetidin-1-yl)carbonyl)-2H-1,4-benzoxazin-3(4H)-one], the inhibition at 10 µM was determined as 96%.
Consider `O=C1COc2cc(F)c(C(=O)N3CC(COc4ccc(-c5cnn(C(F)F)c5)cc4F)C3)cc2N1` [Example 247, 6-((3-((4-(1-(difluoromethyl)-1H-pyrazol-4-yl)-2-fluorophenoxy)methyl)azetidin-1-yl)carbonyl)-7-fluoro-2H-1,4-benzoxazin-3(4H)-one], for which the inhibition at 10 µM turned out to be 96%.
With `O=C1COc2cc(F)c(C(=O)N3CC(COc4ccc(-c5cnn(C6CC6)c5)cc4F)C3)cc2N1` [Example 248, 6-((3-((4-(1-cyclopropyl-1H-pyrazol-4-yl)-2-fluorophenoxy)methyl)azetidin-1-yl)carbonyl)-7-fluoro-2H-1,4-benzoxazin-3(4H)-one], the inhibition at 10 µM came to 98%.
For the compound `Cc1nn(C)cc1-c1ccc(OCC2CN(C(=O)c3cc4c(cc3F)OCC(=O)N4)C2)c(F)c1` [Example 249, 6-((3-((4-(1,3-dimethyl-1H-pyrazol-4-yl)-2-fluorophenoxy)methyl)azetidin-1-yl)carbonyl)-7-fluoro-2H-1,4-benzoxazin-3(4H)-one], the inhibition at 10 µM amounted to 101%.
To `Cc1c(-c2ccc(OCC3CN(C(=O)c4cc5c(cc4F)OCC(=O)N5)C3)c(F)c2)cnn1C` [Example 250, 6-((3-((4-(1,5-dimethyl-1H-pyrazol-4-yl)-2-fluorophenoxy)methyl)azetidin-1-yl)carbonyl)-7-fluoro-2H-1,4-benzoxazin-3(4H)-one] belongs 101%; to `Cc1nn(C)c(C)c1-c1ccc(OCC2CN(C(=O)c3cc4c(cc3F)OCC(=O)N4)C2)c(F)c1` [Example 251, 7-fluoro-6-((3-((2-fluoro-4-(1,3,5-trimethyl-1H-pyrazol-4-yl)phenoxy)methyl)azetidin-1-yl)carbonyl)-2H-1,4-benzoxazin-3(4H)-one], 100%; to `Cn1ccc(-c2ccc(OCC3CN(C(=O)c4cc5c(cc4F)OCC(=O)N5)C3)c(F)c2)n1` [Example 252, 7-fluoro-6-((3-((2-fluoro-4-(1-methyl-1H-pyrazol-3-yl)phenoxy)methyl)azetidin-1-yl)carbonyl)-2H-1,4-benzoxazin-3(4H)-one], 99%.
Take `Cc1cc(-c2ccc(OCC3CN(C(=O)c4cc5c(cc4F)OCC(=O)N5)C3)c(F)c2)nn1C` [Example 253, 6-((3-((4-(1,5-dimethyl-1H-pyrazol-3-yl)-2-fluorophenoxy)methyl)azetidin-1-yl)carbonyl)-7-fluoro-2H-1,4-benzoxazin-3(4H)-one]: the inhibition at 10 µM turned out to be 102%.
The result for `Cn1nccc1-c1ccc(OCC2CN(C(=O)c3cc4c(cc3F)OCC(=O)N4)C2)c(F)c1` [Example 254, 7-fluoro-6-((3-((2-fluoro-4-(1-methyl-1H-pyrazol-5-yl)phenoxy)methyl)azetidin-1-yl)carbonyl)-2H-1,4-benzoxazin-3(4H)-one] reads 102%; that for `Cn1cccc1-c1ccc(OCC2CN(C(=O)c3cc4c(cc3F)OCC(=O)N4)C2)c(F)c1` [Example 255, 7-fluoro-6-((3-((2-fluoro-4-(1-methyl-1H-pyrrol-2-yl)phenoxy)methyl)azetidin-1-yl)carbonyl)-2H-1,4-benzoxazin-3(4H)-one], 102%.
To `O=C1COc2cc(F)c(C(=O)N3CC(COc4ccc(-c5ccc(C(F)(F)F)nc5)cc4F)C3)cc2N1` [Example 256, 7-fluoro-6-((3-((2-fluoro-4-(6-(trifluoromethyl)pyridin-3-yl)phenoxy)methyl)azetidin-1-yl)carbonyl)-2H-1,4-benzoxazin-3(4H)-one] belongs 98%.
Turning to `O=C1COc2cc(F)c(C(=O)N3CC(COc4ccc(-c5ccc6c(c5)CCO6)cc4F)C3)cc2N1` [Example 257, 6-((3-((4-(2,3-dihydro-1-benzofuran-5-yl)-2-fluorophenoxy)methyl)azetidin-1-yl)carbonyl)-7-fluoro-2H-1,4-benzoxazin-3(4H)-one], the inhibition at 10 µM was determined as 99%.
With `Cc1cc(-c2ccc(OCC3CN(C(=O)c4cc5c(cc4F)OCC(=O)N5)C3)c(F)c2)n(C)n1` [Example 259, 6-((3-((4-(1,3-dimethyl-1H-pyrazol-5-yl)-2-fluorophenoxy)methyl)azetidin-1-yl)carbonyl)-7-fluoro-2H-1,4-benzoxazin-3(4H)-one], the inhibition at 10 µM turned out to be 100%.
